Laboratory results reported in US12063930B2, “Sulfonamide-containing 4-(N-methyl) aminopiperidine myricetin derivatives, preparation method and application” (Guizhou University, priority 2019, dated 2024).
Like-named read-outs stand apart in the source and are kept apart here.

What was measured:
[1] = tested on: citrus canker pathogen (Xac); assay: Turbidimetric anti-plant bacterial activity test, citrus canker pathogen; assay type: cell-based, Xanthomonas axonopodis pv. citri
[2] = tested on: rice bacterial wilt pathogen (Xoo); assay type: cell-based, Xanthomonas oryzae pv. oryzae
[3] = tested on: tobacco bacterial wilt pathogen (Rs); assay type: cell-based, Ralstonia solanacearum

Compound	Inhibition Rate ([1]; 50 μg/mL)	Inhibition Rate ([1]; 100 μg/mL)	Inhibition Rate ([2]; 50 μg/mL)	Inhibition Rate ([2]; 100 μg/mL)	Inhibition Rate ([3]; 50 μg/mL)	Inhibition Rate ([3]; 100 μg/mL)
COc1cc(OC)c2c(=O)c(OCCCN(C)C3CCN(S(=O)(=O)c4ccc5ccccc5c4)CC3)c(-c3cc(OC)c(OC)c(OC)c3)oc2c1 [Compound I2]	92.76 ± 2.12%	99.55 ± 5.61%	88.53 ± 5.30%	99.01 ± 4.53%	34.17 ± 5.87%	30.28 ± 8.79%
COc1cc(OC)c2c(=O)c(OCCCN(C)C3CCN(S(=O)(=O)c4ccccc4)CC3)c(-c3cc(OC)c(OC)c(OC)c3)oc2c1 [Compound I7]	89.57 ± 2.14%	92.48 ± 0.65%	48.01 ± 3.21%	53.46 ± 2.80%	50.24 ± 2.21%	52.83 ± 6.66%
COc1cc(OC)c2c(=O)c(OCCCCN(C)C3CCN(S(=O)(=O)c4ccccc4)CC3)c(-c3cc(OC)c(OC)c(OC)c3)oc2c1 [Compound I17]	99.00 ± 0.40%	99.52 ± 0.87%	89.16 ± 1.26%	98.29 ± 2.42%	45.66 ± 3.26%	38.06 ± 1.91%
Nc1nnc([S-])s1.Nc1nnc([S-])s1.[Cu+2] [Thiabenone, thiodiazole copper, reference compound]	44.97%	70.68%	58.92%	70.12%	20.86 ± 4.42%	40.20%
COc1cc(OC)c2c(=O)c(OCCCN(C)C3CCN(S(=O)(=O)c4ccccn4)CC3)c(-c3cc(OC)c(OC)c(OC)c3)oc2c1 [Compound I8]	85.13 ± 2.35%	88.03 ± 1.19%	52.14 ± 3.12%	59.94 ± 3.35%	47.65 ± 0.35%	48.99 ± 2.35%
COc1cc(OC)c2c(=O)c(OCCCN(C)C3CCN(S(=O)(=O)c4ccc5cccnc5c4)CC3)c(-c3cc(OC)c(OC)c(OC)c3)oc2c1 [Compound I9]	32.80 ± 2.29%	42.50 ± 1.87%	37.31 ± 5.41%	40.25 ± 1.39%	12.10 ± 2.57%	28.82 ± 3.37%
COc1cc(OC)c2c(=O)c(OCCCN(C)C3CCN(S(=O)(=O)c4ccc([N+](=O)[O-])cc4)CC3)c(-c3cc(OC)c(OC)c(OC)c3)oc2c1 [Compound I6]	96.13 ± 1.63%	99.01 ± 0.64%	52.08 ± 6.32%	60.99 ± 5.49%	26.01 ± 6.89%	59.09 ± 4.18%
COc1cc(OC)c2c(=O)c(OCCCCN(C)C3CCN(S(=O)(=O)c4ccc(F)cc4)CC3)c(-c3cc(OC)c(OC)c(OC)c3)oc2c1 [Compound I13]	47.25 ± 4.42%	48.08 ± 1.17%	99.72 ± 1.10%	100.00 ± 0.67%	43.16 ± 3.98%	49.25 ± 4.14%
COc1cc(OC)c2c(=O)c(OCCCN(C)C3CCN(S(=O)(=O)c4cccs4)CC3)c(-c3cc(OC)c(OC)c(OC)c3)oc2c1 [Compound I4]	76.83 ± 2.59%	81.47 ± 3.58%	21.34 ± 3.45%	48.16 ± 4.24%	46.44 ± 8.48%	58.19 ± 8.11%
COc1cc(OC)c2c(=O)c(OCCCN(C)C3CCN(S(=O)(=O)c4ccccc4[N+](=O)[O-])CC3)c(-c3cc(OC)c(OC)c(OC)c3)oc2c1 [Compound I10]	38.60 ± 4.17%	45.69 ± 0.50%	59.65 ± 2.25%	67.71 ± 2.22%	57.89 ± 3.30%	94.99 ± 1.50%
COc1ccc(S(=O)(=O)N2CCC(N(C)CCCOc3c(-c4cc(OC)c(OC)c(OC)c4)oc4cc(OC)cc(OC)c4c3=O)CC2)cc1 [Compound I5]	84.37 ± 1.91%	95.86 ± 1.19%	56.37 ± 2.44%	68.42 ± 4.76%	18.66 ± 9.95%	49.03 ± 5.33%
COc1cc(OC)c2c(=O)c(OCCCCN(C)C3CCN(S(=O)(=O)c4ccc([N+](=O)[O-])cc4)CC3)c(-c3cc(OC)c(OC)c(OC)c3)oc2c1 [Compound I16]	66.33 ± 3.56%	74.41 ± 1.31%	55.67 ± 6.24%	70.41 ± 2.62%	27.52 ± 7.50%	26.66 ± 4.37%
COc1cc(OC)c2c(=O)c(OCCCCN(C)C3CCN(S(=O)(=O)c4ccccc4[N+](=O)[O-])CC3)c(-c3cc(OC)c(OC)c(OC)c3)oc2c1 [Compound I20]	96.57 ± 0.31%	97.30 ± 1.97%	90.29 ± 4.84%	94.47 ± 8.30%	21.26 ± 8.58%	4.11 ± 3.12%
COc1cc(OC)c2c(=O)c(OCCCCN(C)C3CCN(S(=O)(=O)c4cccs4)CC3)c(-c3cc(OC)c(OC)c(OC)c3)oc2c1 [Compound I14]	66.18 ± 0.61%	73.80 ± 3.68%	92.19 ± 0.98%	95.49 ± 0.98%	20.44 ± 5.03%	8.17 ± 3.75%
COc1cc(OC)c2c(=O)c(OCCCCN(C)C3CCN(S(=O)(=O)c4ccccn4)CC3)c(-c3cc(OC)c(OC)c(OC)c3)oc2c1 [Compound I18]	88.69 ± 0.71%	93.05 ± 0.55%	70.98 ± 3.04%	78.12 ± 4.25%	46.22 ± 3.27%	30.11 ± 1.65%
COc1cc(OC)c2c(=O)c(OCCCN(C)C3CCN(S(=O)(=O)c4ccc(C)cc4)CC3)c(-c3cc(OC)c(OC)c(OC)c3)oc2c1 [Compound I1]	93.55 ± 0.85%	99.20 ± 4.48%	75.88 ± 1.80%	81.34 ± 0.57%	47.86 ± 5.55%	58.01 ± 6.08%
bismerthiazol [Leaf Blight Azole, reference compound]	50.60%	66.63%	39.14%	60.50%	57.63%	65.69%
COc1cc(OC)c2c(=O)c(OCCCCN(C)C3CCN(S(=O)(=O)c4ccc(C)cc4)CC3)c(-c3cc(OC)c(OC)c(OC)c3)oc2c1 [Compound I11]	47.25 ± 5.84%	54.94 ± 8.29%	71.76 ± 4.56%	87.57 ± 2.76%	46.83 ± 6.39%	93.56 ± 0.55%
COc1cc(OC)c2c(=O)c(OCCCN(C)C3CCN(S(=O)(=O)c4ccc(F)cc4)CC3)c(-c3cc(OC)c(OC)c(OC)c3)oc2c1 [Compound I3]	88.81 ± 1.32%	94.73 ± 1.63%	9.99 ± 7.64%	53.31 ± 3.55%	56.37 ± 3.41%	55.25 ± 2.35%
COc1ccc(S(=O)(=O)N2CCC(N(C)CCCCOc3c(-c4cc(OC)c(OC)c(OC)c4)oc4cc(OC)cc(OC)c4c3=O)CC2)cc1 [Compound I15]	62.21 ± 1.33%	67.94 ± 1.42%	94.39 ± 0.62%	96.11 ± 0.71%	3.13 ± 5.57%	24.02 ± 2.41%
COc1cc(OC)c2c(=O)c(OCCCCN(C)C3CCN(S(=O)(=O)c4ccc5cccnc5c4)CC3)c(-c3cc(OC)c(OC)c(OC)c3)oc2c1 [Compound I19]	85.44 ± 1.04%	89.05 ± 0.47%	38.72 ± 1.36%	51.83 ± 2.05%	37.71 ± 3.71%	35.21 ± 6.56%
COc1cc(OC)c2c(=O)c(OCCCCN(C)C3CCN(S(=O)(=O)c4ccc5ccccc5c4)CC3)c(-c3cc(OC)c(OC)c(OC)c3)oc2c1 [Compound I12]	29.56 ± 7.62%	35.81 ± 2.40%	89.81 ± 1.34%	95.44 ± 4.92%	45.75 ± 3.32%	36.46 ± 7.42%
